Columns and labels:
Experiment in all cases: normalised response (% of control), CellTiter-Glo; higher = more viable cells (100 = DMSO, 0 = benzethonium chloride kill control)
Details in all cases: incubation time: 72 h
[1] = tested on: MDA-MB-468
Summary of the method: (§1)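 Each entry is the normalised signal at a single concentration within a series. The series comprised 5 concentrations in 10-fold steps over a compound-specific 10,000-fold range, placed in 384-well plates into which breast cancer cell lines were seeded as 20 µl suspension and incubated 72 h. CellTox Green (485/520 nm) fluorescence and then CellTiter-Glo luminescence were read, with signals normalised per plate to 0.1 % DMSO (100) and a positive kill control (0).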

[2] = tested on: Hs578T
Summary of the method: as §1

[3] = tested on: MCF-10A
Summary of the method: as §1

[4] = tested on: HCC1937
Summary of the method: as §1

[5] = tested on: CAL-51
Summary of the method: as §1

[6] = tested on: CAL-148
Summary of the method: as §1

[7] = tested on: BT-549
Summary of the method: as §1

[8] = tested on: BT-474
Summary of the method: as §1

[9] = tested on: MDA-MB-231
Summary of the method: as §1

[10] = tested on: MFM-223
Summary of the method: as §1

[11] = tested on: HDQ-P1
Summary of the method: as §1

[12] = tested on: DU-4475
Summary of the method: as §1

[13] = tested on: CAL-120
Summary of the method: as §1

[14] = tested on: MDA-MB-436
Summary of the method: as §1

[15] = tested on: HCC1599
Summary of the method: as §1

[16] = tested on: MDA-MB-453
Summary of the method: as §1

[17] = tested on: HCC1143
Summary of the method: as §1

[18] = tested on: CAL-85-1
Summary of the method: as §1

[19] = tested on: SK-BR-3
Summary of the method: as §1

| Structure (SMILES) | normalised response [1] [%] | normalised response [2] [%] | normalised response [3] [%] | normalised response [4] [%] | normalised response [5] [%] | normalised response [6] [%] | normalised response [7] [%] | normalised response [8] [%] | normalised response [9] [%] | normalised response [10] [%] | normalised response [11] [%] | normalised response [12] [%] | normalised response [13] [%] | normalised response [14] [%] | normalised response [15] [%] | normalised response [16] [%] | normalised response [17] [%] | normalised response [18] [%] | normalised response [19] [%] |
| --- | --- | --- | --- | --- | --- | --- | --- | --- | --- | --- | --- | --- | --- | --- | --- | --- | --- | --- | --- |
| CCc1cncnc1N1CCN(Cc2nc3ccc(C(F)(F)F)cc3[nH]2)CC1 (1 nM) | 109 | 101 | 106 | 95.5 | 125 | 106 | 108 | 107 | 105 | 103 | 105 | 103 | 101 | 107 | 114 | 115 | 99.5 | 97.3 | 110 |
| CCc1cncnc1N1CCN(Cc2nc3ccc(C(F)(F)F)cc3[nH]2)CC1 (10 nM) | 101 | 107 | 113 | 98.1 | 111 | 115 | 93.2 | 108 | 108 | 103 | 98.8 | 104 | 101 | 109 | 98.7 | 110 | 111 | 99.1 |  |
| CC[C@@H]1C(=O)N(C)c2cnc(Nc3ccc(C(=O)NC4CCN(C)CC4)cc3OC)nc2N1C1CCCC1 [BI 2536] (0.1 nM) | 108 | 97.4 | 106 | 98.7 | 103 | 102 | 103 | 105 | 103 | 106 | 95.7 | 103 | 104 | 104 | 110 | 92.6 | 94.9 | 105 | 112 |
| CC[C@@H]1C(=O)N(C)c2cnc(Nc3ccc(C(=O)NC4CCN(C)CC4)cc3OC)nc2N1C1CCCC1 [BI 2536] (1 nM) | 92.6 | 96.7 | 102 | 94.6 | 133 | 112 | 98.2 | 101 | 101 | 96.5 | 97.8 | 107 | 97.2 | 100 | 108 | 84.6 | 100 | 100 | 97.2 |
| O=C(O)CCCCC(CCSCc1ccccc1)SCc1ccccc1 (stereo not drawn) [CPI-613] (1 nM) | 103 | 102 | 106 | 104 | 78.6 | 107 | 102 | 101 | 100 | 99.1 | 100 | 101 | 96.3 | 96.5 | 97.6 | 107 | 105 | 99.2 | 114 |
| O=C(O)CCCCC(CCSCc1ccccc1)SCc1ccccc1 (stereo not drawn) [CPI-613] (10 nM) | 101 | 96.6 | 112 | 99 | 95.5 | 103 | 89.8 | 105 | 96.2 | 105 | 102 | 104 | 98.7 | 105 | 118 | 105 | 108 | 97.8 | 109 |
| C=CC(=O)Nc1cc2c(Nc3ccc(F)c(Cl)c3)ncnc2cc1OCCCN1CCOCC1 [Canertinib] (1 nM) | 106 | 98.6 | 108 | 97.3 | 104 | 103 | 104 | 96.8 | 104 | 105 | 98.8 | 105 | 95.2 | 94.5 | 93.3 | 108 | 95.6 | 103 | 103 |
| C=CC(=O)Nc1cc2c(Nc3ccc(F)c(Cl)c3)ncnc2cc1OCCCN1CCOCC1 [Canertinib] (10 nM) | 96.3 | 103 | 76.6 | 89.5 | 84.3 | 102 | 95.6 | 106 | 106 | 103 | 82.4 | 107 | 91.7 | 99.2 | 93.8 | 99.1 | 99.8 | 99.6 | 91 |
| O=C(O)C1(C(=O)O)CCC1.[NH2-].[NH2-].[Pt+2] [Carboplatin] (1 nM) | 95.2 | 101 | 108 | 101 | 115 | 100 | 99 | 98.9 | 104 | 98.8 | 97.5 | 100 | 97 | 101 | 103 | 109 | 103 | 96.6 | 89.3 |
| O=C(O)C1(C(=O)O)CCC1.[NH2-].[NH2-].[Pt+2] [Carboplatin] (10 nM) | 96.8 | 101 | 103 | 96.6 | 57.9 | 105 | 102 | 103 | 97 | 98.4 | 96.9 | 95.9 | 99.3 | 95.4 | 99.2 | 99.7 | 104 | 99.5 |  |

Reference: the supplement of paper PMC4862054
